# Test results as given in patent US9193731B2, “Antimicrobial compounds and methods of making and using the same” (Melinta Therapeutics, Inc., priority 2009, dated 2015).
# Tested on: Escherichia coli strain ATCC25922
# Assay: standard microdilution assay to determine minimum inhibitory concentrations (MICs)
# Format: cell-based
# Conditions: for E. coli ATCC25922 MIC: Escherichia coli strain ATCC25922, microdilution; for MIC: Escherichia coli, ATCC25922, Escherichia coli strain ATCC25922, microdilution, read-out: E. coli ATCC25922 MIC
# Protocol: Minimum inhibitory concentrations (MICs) are determined by the microdilution method, typically in a final volume of 100 microliters, according to protocols outlined by The Clinical and Laboratory Standards Institute [CLSI; formerly the National Committee for Clinical Laboratory Standards (NCCLS)]. See CLSI: Methods for dilution antimicrobial susceptibility tests for bacteria that grow aerobically; approved standard-fifth edition. Wayne, Pa.: NCCLS; 2000. The assays can be also be performed in microtiter trays according to conventional methodologies as published by the CLSI. See CLSI. Methods for Dilution Antimicrobial Susceptibility Tests for Bacteria That Grow Aerobically; Approved Standard—Seventh Edition. CLSI Document M7-A7 [ISBN 1-56238-587-9] CLSI, 940 West Valley Road, Suite 1400, Wayne Pa. 19087-1898 USA, 2006).
# The compounds of the present invention were tested for antimicrobial activity. The compounds were run against Escherichia coli strain ATCC25922 using a standard microdilution assay to determine minimum inhibitory concentrations (MICs). […] A “N/A” means that data is unavailable. It will be recognized by one skilled in the art that the compounds can be assessed against other bacterial organisms and that the presentation of data for activity against Escherichia coli is illustrative and in no way is intended to limit the scope of the present invention. The compounds of the present invention can be assayed against a range of other microorganisms depending upon the performance activity desired to be gathered. Furthermore, the “+”, “−”, and “N/A” representation and the selection of a cutoff value of 16 micrograms/ml is also illustrative and in no way is intended to limit the scope of the present invention.
Structure (SMILES),E. coli ATCC25922 MIC,MIC
NC1CCN(Cc2ccc(-n3cc4cc(-c5ccc(S(=O)(=O)N(CCCn6cnnc6)C6CCNCC6)cc5)[nH]c4nc3=O)cc2)C1 (stereo not drawn) [Compound 1220],− (a “−” indicates that the compound has an MIC value greater than 16 micrograms/ml),–
NCCCN(CCCN)Cc1ccc(-n2cc3cc(-c4ccc(S(=O)(=O)N(CCN5CCOCC5)C5CCNCC5)cc4)[nH]c3nc2=O)cc1 [Compound 233],–,< 16 mg/L
N=C(N)NCCCNCc1ccc(-n2cc3cc(CCNC4CCNCC4)[nH]c3nc2=O)cc1 [Compound 719],–,< 16 mg/L
N=C(N)NCCCNCc1ccc(-n2cc3cc(COc4ccccc4)[nH]c3nc2=O)cc1 [Compound 630],–,> 16 mg/L
COc1ccc(NCCCS(=O)(=O)c2ccc(-c3cc4cn(-c5ccc(CNCCCN=C(N)N)cc5)c(=O)nc4[nH]3)cc2)cc1 [Compound 1250],− (a “−” indicates that the compound has an MIC value greater than 16 micrograms/ml),–
Cc1cc(C)n2nc(CCCN(C3CCNCC3)S(=O)(=O)c3ccc(-c4cc5cn(-c6ccc(CNCCCNC(=N)N)cc6)c(=O)nc5[nH]4)cc3)nc2n1 [Compound 986],− (a “−” indicates that the compound has an MIC value greater than 16 micrograms/ml),–
NCCCCCN1CCN(c2cn3cc(-c4ccc(S(=O)(=O)N5CCNCC5)cc4)[nH]c3nc2=O)CC1 [Compound 900],–,> 16 mg/L
NCCCNCc1ccc(-n2cc3cc(-c4ccc(C(NC5CCNCC5)C(F)(F)F)cc4)[nH]c3nc2=O)cc1 (stereo not drawn) [Compound 918],+ (a “+” indicates that the compound has an MIC value of 16 micrograms/ml or less),–
N=C(N)NCCCNCc1ccc(-n2cc3cc(-c4ccc(S(=O)(=O)N(C5CCNCC5)C5CCOCC5)cc4)[nH]c3nc2=O)cc1 [Compound 727],–,< 16 mg/L
N=C(N)NCCCNCc1ccc(-n2cc3cc(-c4cc(C(=O)Nc5cccc(C(F)(F)F)c5)cc(N5CCNCC5)c4)[nH]c3nc2=O)cc1 [Compound 1069],+ (a “+” indicates that the compound has an MIC value of 16 micrograms/ml or less),–
CO[C@H](CN)COc1cccc(-c2cc3cn(-c4ccc(CN)cc4)c(=O)nc3[nH]2)c1 [Compound 1428],–,> 16 mg/L
CN(CCCO)Cc1cc(-c2cc3cn(-c4ccc(CNCCCNC(=N)N)cc4)c(=O)nc3[nH]2)cc(N2CCNCC2)c1 [Compound 937],+ (a “+” indicates that the compound has an MIC value of 16 micrograms/ml or less),–
N=C(N)NCCCNCc1ccc(-c2cn3cc(C(=O)Nc4cccc(OC(F)(F)F)c4)[nH]c3nc2=O)cc1 [Compound 974],− (a “−” indicates that the compound has an MIC value greater than 16 micrograms/ml),–
Cc1cc(CN(C(=O)c2ccc(-c3cc4cn(-c5ccc(CN(CCCN)CCCN)cc5)c(=O)nc4[nH]3)cc2)C2CCNCC2)no1 [Compound 226],–,> 16 mg/L
NCCCNCc1ccc(-c2cn3cc(-c4ccc(C(=O)NC56CC7CC(CC(C7)C5)C6)cc4)[nH]c3nc2=O)cc1 [Compound 717],–,> 16 mg/L
NCCCCCN1CC=C(n2cc3cc(-c4ccc(F)cc4)[nH]c3nc2=O)CC1 [Compound 508],–,> 16 mg/L
CC(=O)NCCN(C1CCNCC1)S(=O)(=O)c1cccc(-c2cc3cn(-c4ccc(CN)cc4)c(=O)nc3[nH]2)c1 [Compound 1224],–,> 16 mg/L
N=C(N)NCCCNCc1ccc(-c2cn3cc(-c4ccc(C(=O)N5CCN(CCF)CC5)cc4)[nH]c3nc2=O)cc1 [Compound 826],− (a “−” indicates that the compound has an MIC value greater than 16 micrograms/ml),–
N=C(N)NCCCNCc1ccc(-n2cc3cc(-c4cccc(CCCN)c4)[nH]c3nc2=O)cc1 [Compound 1446],+ (a “+” indicates that the compound has an MIC value of 16 micrograms/ml or less),–
COc1ccc(CCN(C2CCNCC2)S(=O)(=O)c2cccc(-c3cc4cn(-c5ccc(CNCCCN=C(N)N)cc5)c(=O)nc4[nH]3)c2)cc1 [Compound 1226],+ (a “+” indicates that the compound has an MIC value of 16 micrograms/ml or less),–
N=C(N)NCCNCc1ccc(-n2cc3cc(-c4ccc(S(=O)(=O)NC5CCNCC5)cc4)[nH]c3nc2=O)cc1 [Compound 1104],+ (a “+” indicates that the compound has an MIC value of 16 micrograms/ml or less),–

Structure (SMILES),E. coli ATCC25922 MIC,MIC
N=C(N)NCCCNCc1ccc(-n2cc3cc(-c4cc(OCC(F)CN)cc(N5CCNCC5)c4)[nH]c3nc2=O)cc1 (stereo not drawn) [Compound 2005a],+ (a “+” indicates that the compound has an MIC value of 16 micrograms/ml or less),–
N=C(N)NCCCNC(=O)c1ccc(-n2cc3cc(-c4cccc(OCCCN)c4)[nH]c3nc2=O)cc1 [Compound 1255],–,< 16 mg/L
N=C(N)NCCCCCN1CCN(c2cn3cc(-c4ccc(Br)cc4)[nH]c3nc2=O)CC1 [Compound 882],–,> 16 mg/L
N=C(N)NCCCNCc1ccc(-n2cc3cc(-c4cccc(OCCC5(N)CCCC5)c4)[nH]c3nc2=O)cc1 [Compound 1447],+ (a “+” indicates that the compound has an MIC value of 16 micrograms/ml or less),–
NCc1ccc(-n2cc3cc(-c4ccc(S(=O)(=O)N(CC5CC5)C5CCNCC5)cc4)[nH]c3nc2=O)cc1 [Compound 935],− (a “−” indicates that the compound has an MIC value greater than 16 micrograms/ml),–
CC1CN(S(=O)(=O)c2ccc(-c3cc4cn(-c5ccc(CNCCCNC(=N)N)cc5)c(=O)nc4[nH]3)cc2)CC(C)N1 (stereo not drawn) [Compound 872],+ (a “+” indicates that the compound has an MIC value of 16 micrograms/ml or less),–
N=C(N)NCCCNCc1ccc(-n2cc3cc(-c4cccc(S(=O)(=O)N(Cc5ccc(Cl)c(Cl)c5)C5CCNCC5)c4)[nH]c3nc2=O)cc1 [Compound 979],+ (a “+” indicates that the compound has an MIC value of 16 micrograms/ml or less),–
O=C(NC1CCNCC1)c1c(F)cc(-c2cc3cn(-c4ccc(CNCCCF)cc4)c(=O)nc3[nH]2)cc1F [Compound 262],–,> 16 mg/L
N=C(N)NCCCNCc1ccc(-n2cc3cc(-c4cccc(OC[C@H]5CCNC5)c4)[nH]c3nc2=O)cc1 [Compound 1438],+ (a “+” indicates that the compound has an MIC value of 16 micrograms/ml or less),–
N=C(N)NCCCNCc1ccc(-n2cc3cc(-c4cc(CO)cc(OCC(F)CN)c4)[nH]c3nc2=O)cc1 (stereo not drawn) [Compound 2050a],+ (a “+” indicates that the compound has an MIC value of 16 micrograms/ml or less),–
COc1ccc(NCCCS(=O)(=O)c2ccc(-c3cc4cn(-c5ccc(C(=O)NCCCNC(=N)N)cc5)c(=O)nc4[nH]3)cc2)cc1 [Compound 1260],− (a “−” indicates that the compound has an MIC value greater than 16 micrograms/ml),–
NCCCNCc1ccc(-n2cc3cc(-c4ccc(S(=O)(=O)N(C5CCNCC5)C5CCOCC5)cc4)[nH]c3nc2=O)cc1 [Compound 726],–,< 16 mg/L
NCc1ccc(-n2cc3cc(-c4cccc(S(=O)(=O)N(CCn5cccn5)C5CCNCC5)c4)[nH]c3nc2=O)cc1 [Compound 1174],–,> 16 mg/L
NCCCNC(=O)c1ccc(-n2cc3cc(-c4ccc(S(=O)(=O)NC5CCNCC5)cc4)[nH]c3nc2=O)cc1OCC1CCNCC1 [Compound 1241],− (a “−” indicates that the compound has an MIC value greater than 16 micrograms/ml),–
N=C(N)NCCCNCc1ccc(-n2cc3cc(-c4cc(CNCCc5ccc(F)cc5)cc(N5CCNCC5)c4)[nH]c3nc2=O)cc1 [Compound 1044],+ (a “+” indicates that the compound has an MIC value of 16 micrograms/ml or less),–
N=C(N)NCCCNCc1ccc(-n2cc3cc(-c4cccc(S(=O)(=O)N(CCCC5CCCC5)C5CCNCC5)c4)[nH]c3nc2=O)cc1 [Compound 1047],+ (a “+” indicates that the compound has an MIC value of 16 micrograms/ml or less),–
NCc1ccc(-n2cc3cc(-c4ccc(S(=O)(=O)N(CCCN5CCOCC5)C5CCNCC5)cc4)[nH]c3nc2=O)cc1 [Compound 1038],–,> 16 mg/L
NCCCN(CCCN)Cc1ccc(-n2cc3cc(-c4ccc(C(=O)NC5CCOCC5)cc4)[nH]c3nc2=O)cc1 [Compound 193],–,> 16 mg/L
N=C(N)NCCCNCc1ccc(-n2cc3cc(CCN4CCS(=O)(=O)CC4)[nH]c3nc2=O)cc1 [Compound 785],–,> 16 mg/L
CCn1cc(CCCN(C2CCNCC2)S(=O)(=O)c2ccc(-c3cc4cn(-c5ccc(CNCCCNC(=N)N)cc5)c(=O)nc4[nH]3)cc2)cn1 [Compound 837],+ (a “+” indicates that the compound has an MIC value of 16 micrograms/ml or less),–
CC1CN(C(=O)c2ccc(-c3cn4cc(-c5ccc(CNCCCN)cc5)c(=O)nc4[nH]3)cc2)CC(C)N1 (stereo not drawn) [Compound 819],+ (a “+” indicates that the compound has an MIC value of 16 micrograms/ml or less),–
